Values joined by “and” are separate entries in the source; they are usually repeats but may differ in a detail not shown here. Equal values may be shown once.
Assays:
Assay in all cases: Caliper, Mobility shift assay off-chip
AXL (human) = AXL (human) (UniProt P30530)
BLK (human) = BLK (human) (UniProt P51451)
CAMK2A (human) = CAMK2A (human) (UniProt Q9UQM7)
CHEK1 (human) = CHEK1 (human) (UniProt O14757)
CLK1 (human) = CLK1 (human) (UniProt P49759)
CSNK1A1 (human) = CSNK1A1 (human) (UniProt P48729)
CSNK2A2 (human) = CSNK2A2 (human) (UniProt P19784)
DYRK1A (human) = DYRK1A (human) (UniProt Q13627)
DYRK2 (human) = DYRK2 (human) (UniProt Q92630)
Sequence of DYRK2 (human) (Q92630 whole entry, looked up): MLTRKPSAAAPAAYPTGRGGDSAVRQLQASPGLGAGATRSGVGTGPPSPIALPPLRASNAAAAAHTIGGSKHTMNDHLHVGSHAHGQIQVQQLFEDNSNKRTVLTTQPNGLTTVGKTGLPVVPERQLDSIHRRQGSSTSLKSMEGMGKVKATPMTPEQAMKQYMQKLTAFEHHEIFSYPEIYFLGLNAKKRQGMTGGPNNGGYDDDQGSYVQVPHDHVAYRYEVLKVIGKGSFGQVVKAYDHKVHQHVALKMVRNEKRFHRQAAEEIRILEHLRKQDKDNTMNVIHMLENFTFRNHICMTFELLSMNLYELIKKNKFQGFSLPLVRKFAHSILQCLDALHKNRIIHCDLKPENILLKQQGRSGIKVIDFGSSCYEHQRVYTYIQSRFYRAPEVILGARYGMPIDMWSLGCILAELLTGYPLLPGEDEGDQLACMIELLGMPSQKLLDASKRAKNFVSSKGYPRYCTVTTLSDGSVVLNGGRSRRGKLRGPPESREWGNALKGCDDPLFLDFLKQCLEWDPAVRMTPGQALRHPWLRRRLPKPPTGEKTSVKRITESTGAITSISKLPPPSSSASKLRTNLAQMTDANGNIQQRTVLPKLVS

DYRK3 (human) = DYRK3 (human) (UniProt O43781)
Sequence of DYRK3 (human) (O43781 whole entry, looked up): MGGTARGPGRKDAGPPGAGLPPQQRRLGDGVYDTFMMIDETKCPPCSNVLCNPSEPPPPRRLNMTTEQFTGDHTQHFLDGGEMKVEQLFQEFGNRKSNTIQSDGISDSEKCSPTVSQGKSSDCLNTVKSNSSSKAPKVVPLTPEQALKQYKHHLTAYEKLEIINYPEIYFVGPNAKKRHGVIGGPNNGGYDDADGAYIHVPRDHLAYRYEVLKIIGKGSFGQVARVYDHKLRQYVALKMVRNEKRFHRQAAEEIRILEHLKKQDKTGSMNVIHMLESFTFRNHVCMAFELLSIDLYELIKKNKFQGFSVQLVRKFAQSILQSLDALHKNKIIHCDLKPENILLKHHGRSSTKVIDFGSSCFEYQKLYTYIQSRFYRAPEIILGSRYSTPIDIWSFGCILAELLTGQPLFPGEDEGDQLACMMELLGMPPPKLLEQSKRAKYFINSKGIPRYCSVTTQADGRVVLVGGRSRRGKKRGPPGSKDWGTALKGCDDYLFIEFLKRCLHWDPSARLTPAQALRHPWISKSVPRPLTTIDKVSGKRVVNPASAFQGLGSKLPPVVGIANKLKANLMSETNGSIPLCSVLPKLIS

EPHA2 (human) = EPHA2 (human) (UniProt P29317)
Sequence of EPHA2 (human) (P29317 whole entry, looked up): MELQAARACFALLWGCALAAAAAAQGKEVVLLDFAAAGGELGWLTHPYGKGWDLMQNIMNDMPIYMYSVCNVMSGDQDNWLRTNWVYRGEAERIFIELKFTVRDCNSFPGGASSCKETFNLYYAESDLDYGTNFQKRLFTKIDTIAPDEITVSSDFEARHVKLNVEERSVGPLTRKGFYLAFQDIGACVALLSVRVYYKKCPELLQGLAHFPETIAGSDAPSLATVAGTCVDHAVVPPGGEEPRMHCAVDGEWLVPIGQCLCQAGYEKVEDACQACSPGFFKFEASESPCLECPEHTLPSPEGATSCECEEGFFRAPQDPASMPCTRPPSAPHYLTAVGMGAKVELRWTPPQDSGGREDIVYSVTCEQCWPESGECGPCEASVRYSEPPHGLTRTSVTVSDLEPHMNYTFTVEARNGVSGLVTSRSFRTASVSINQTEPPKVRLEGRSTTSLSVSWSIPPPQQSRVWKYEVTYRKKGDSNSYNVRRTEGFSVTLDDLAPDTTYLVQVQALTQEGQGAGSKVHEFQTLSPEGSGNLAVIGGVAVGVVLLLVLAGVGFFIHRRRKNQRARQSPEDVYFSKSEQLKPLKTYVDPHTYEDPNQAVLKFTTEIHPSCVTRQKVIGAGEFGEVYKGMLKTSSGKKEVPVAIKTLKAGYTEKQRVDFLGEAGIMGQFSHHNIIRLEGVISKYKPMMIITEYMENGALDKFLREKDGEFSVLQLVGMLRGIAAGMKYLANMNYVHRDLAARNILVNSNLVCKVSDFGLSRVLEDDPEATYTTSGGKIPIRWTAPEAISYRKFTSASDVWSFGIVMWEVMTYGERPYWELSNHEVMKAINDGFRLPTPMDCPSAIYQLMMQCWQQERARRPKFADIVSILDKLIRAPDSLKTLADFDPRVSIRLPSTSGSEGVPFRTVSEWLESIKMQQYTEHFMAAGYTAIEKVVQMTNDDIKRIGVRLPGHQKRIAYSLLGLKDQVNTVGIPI

EPHB2 (human) = EPHB2 (human) (UniProt P29323)
FGFR3 (human) = FGFR3 (human) (UniProt P22607)
FGR (human) = FGR (human) (UniProt P09769)
FLT4 (human) = FLT4 (human) (UniProt P35916)
INSR (human) = INSR (human) (UniProt P06213)
ITK (human) = ITK (human) (UniProt Q08881)
JAK1 JH1 JH2 (human) = JAK1 JH1 JH2 (human) (UniProt P23458)
Sequence of JAK1 JH1 JH2 (human) (P23458 whole entry, looked up): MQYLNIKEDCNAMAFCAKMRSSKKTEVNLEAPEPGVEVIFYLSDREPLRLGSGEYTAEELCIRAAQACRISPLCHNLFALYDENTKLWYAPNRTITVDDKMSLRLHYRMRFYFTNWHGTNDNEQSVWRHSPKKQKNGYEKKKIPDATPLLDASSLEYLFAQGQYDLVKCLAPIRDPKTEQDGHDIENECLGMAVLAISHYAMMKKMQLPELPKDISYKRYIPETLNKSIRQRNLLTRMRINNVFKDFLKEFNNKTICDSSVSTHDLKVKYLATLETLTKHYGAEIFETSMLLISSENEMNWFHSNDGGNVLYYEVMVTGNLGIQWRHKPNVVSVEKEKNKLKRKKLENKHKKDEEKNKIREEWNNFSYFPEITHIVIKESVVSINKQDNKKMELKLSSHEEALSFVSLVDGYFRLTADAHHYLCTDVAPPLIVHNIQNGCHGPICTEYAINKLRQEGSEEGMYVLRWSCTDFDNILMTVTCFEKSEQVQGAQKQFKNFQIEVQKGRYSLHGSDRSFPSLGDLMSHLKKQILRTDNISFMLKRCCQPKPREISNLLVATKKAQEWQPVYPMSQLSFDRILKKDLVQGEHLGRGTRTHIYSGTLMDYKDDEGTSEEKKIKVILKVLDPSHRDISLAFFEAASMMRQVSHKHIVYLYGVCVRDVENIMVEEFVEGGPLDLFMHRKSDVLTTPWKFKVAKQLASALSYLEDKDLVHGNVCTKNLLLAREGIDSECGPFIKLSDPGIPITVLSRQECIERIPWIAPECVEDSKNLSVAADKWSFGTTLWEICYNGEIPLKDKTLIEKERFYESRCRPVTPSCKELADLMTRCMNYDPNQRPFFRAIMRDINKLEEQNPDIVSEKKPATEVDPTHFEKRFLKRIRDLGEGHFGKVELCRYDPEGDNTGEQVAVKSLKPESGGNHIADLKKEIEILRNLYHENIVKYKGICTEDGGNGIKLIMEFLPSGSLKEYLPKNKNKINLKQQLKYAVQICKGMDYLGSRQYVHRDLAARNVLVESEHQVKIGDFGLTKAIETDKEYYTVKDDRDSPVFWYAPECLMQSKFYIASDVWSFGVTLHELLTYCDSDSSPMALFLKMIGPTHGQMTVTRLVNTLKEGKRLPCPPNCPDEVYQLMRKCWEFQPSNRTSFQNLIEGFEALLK

KDR (human) = KDR (human) (UniProt P35968)
LYN (human) = LYN (human) (UniProt P07948)
MARK2 (human) = MARK2 (human) (UniProt Q7KZI7)
NIM1 (human) = NIM1 (human) (UniProt Q8IY84)
NUAK2 (human) = NUAK2 (human) (UniProt Q9H093)
Sequence of NUAK2 (human) (Q9H093 whole entry, looked up): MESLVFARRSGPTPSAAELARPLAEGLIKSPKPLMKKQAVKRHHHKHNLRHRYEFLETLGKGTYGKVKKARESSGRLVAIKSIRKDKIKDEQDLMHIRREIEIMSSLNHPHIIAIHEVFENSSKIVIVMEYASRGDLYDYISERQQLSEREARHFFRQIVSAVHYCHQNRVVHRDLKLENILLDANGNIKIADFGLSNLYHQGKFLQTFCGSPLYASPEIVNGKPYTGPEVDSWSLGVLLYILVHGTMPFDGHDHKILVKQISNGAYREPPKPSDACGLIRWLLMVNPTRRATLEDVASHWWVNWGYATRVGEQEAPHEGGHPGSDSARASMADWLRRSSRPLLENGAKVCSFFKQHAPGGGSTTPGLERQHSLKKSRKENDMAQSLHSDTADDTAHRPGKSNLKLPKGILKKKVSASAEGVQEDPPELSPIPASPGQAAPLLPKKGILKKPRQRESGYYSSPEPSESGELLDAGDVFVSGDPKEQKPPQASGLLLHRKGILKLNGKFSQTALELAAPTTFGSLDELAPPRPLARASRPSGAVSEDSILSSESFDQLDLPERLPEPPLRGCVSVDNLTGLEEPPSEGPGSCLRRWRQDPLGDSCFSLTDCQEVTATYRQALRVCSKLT

PAK2 (human) = PAK2 (human) (UniProt Q13177)
PAK4 (human) = PAK4 (human) (UniProt O96013)
PLK1 (human) = PLK1 (human) (UniProt P53350)
Sequence of PLK1 (human) (P53350 whole entry, looked up): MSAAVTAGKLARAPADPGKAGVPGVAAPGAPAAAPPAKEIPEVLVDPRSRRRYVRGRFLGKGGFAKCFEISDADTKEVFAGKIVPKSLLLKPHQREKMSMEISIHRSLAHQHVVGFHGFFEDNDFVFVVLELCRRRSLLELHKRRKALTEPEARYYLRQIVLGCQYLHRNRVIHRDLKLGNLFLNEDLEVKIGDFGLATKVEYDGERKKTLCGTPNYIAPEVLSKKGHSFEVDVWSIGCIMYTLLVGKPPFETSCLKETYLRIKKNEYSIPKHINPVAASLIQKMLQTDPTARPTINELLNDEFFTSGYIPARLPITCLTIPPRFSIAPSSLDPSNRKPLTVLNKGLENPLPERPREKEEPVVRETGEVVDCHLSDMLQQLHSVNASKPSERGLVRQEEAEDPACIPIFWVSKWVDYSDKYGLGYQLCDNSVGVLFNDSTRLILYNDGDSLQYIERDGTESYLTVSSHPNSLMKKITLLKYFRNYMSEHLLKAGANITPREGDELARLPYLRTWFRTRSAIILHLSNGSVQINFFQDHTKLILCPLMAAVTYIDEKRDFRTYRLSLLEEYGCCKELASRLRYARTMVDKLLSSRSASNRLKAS

PRKACA (human) = PRKACA (human) (UniProt P17612)
RPS6KA5 KD1 KD2 (human) = RPS6KA5 KD1 KD2 (human) (UniProt O75582)
SGK1 (human) = SGK1 (human) (UniProt O00141)
SPHK2 (human) = SPHK2 (human) (UniProt Q9NRA0)
SRPK2 (human) = SRPK2 (human) (UniProt P78362)
TSSK3 (human) = TSSK3 (human) (UniProt Q96PN8)
WNK1 (human) = WNK1 (human) (UniProt Q9H4A3)
GSK3B (human) = GSK3B (human) (UniProt P49841)

Sequence of CAMK2A (human) (Q9UQM7 whole entry, looked up): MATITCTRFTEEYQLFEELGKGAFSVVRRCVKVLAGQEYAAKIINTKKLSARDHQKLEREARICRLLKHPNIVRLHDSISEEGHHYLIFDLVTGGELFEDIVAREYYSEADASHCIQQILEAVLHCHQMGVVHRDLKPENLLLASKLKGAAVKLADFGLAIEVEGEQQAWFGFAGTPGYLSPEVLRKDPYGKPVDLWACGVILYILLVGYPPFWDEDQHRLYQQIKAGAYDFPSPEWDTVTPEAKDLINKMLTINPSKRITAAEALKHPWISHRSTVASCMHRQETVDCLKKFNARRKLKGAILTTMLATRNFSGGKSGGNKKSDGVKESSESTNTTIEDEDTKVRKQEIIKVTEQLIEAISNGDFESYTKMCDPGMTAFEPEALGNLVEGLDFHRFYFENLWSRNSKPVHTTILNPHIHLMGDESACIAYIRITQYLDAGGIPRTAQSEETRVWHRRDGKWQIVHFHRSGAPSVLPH

An inhibition (AXL (human); compound 0.001 µM) of -0.8%, an inhibition (AXL (human); compound 0.02 µM) of 4.1% and an inhibition (BLK (human); compound 0.001 µM) of 0.4% were found for `CNC(=O)c1ccccc1Sc1ccc2c(/C=C/c3ccccn3)n[nH]c2c1` in this work. For the same compound, the inhibition (BLK (human); compound 0.02 µM) was -1.6%, the inhibition (CAMK2A (human); compound 0.001 µM) was 3.7% and the inhibition (CAMK2A (human); compound 0.02 µM) was 3.2%. It also gave an inhibition (CHEK1 (human); compound 0.001 µM) of -2%, an inhibition (CHEK1 (human); compound 0.02 µM) of 0.9% and an inhibition (CLK1 (human); compound 0.001 µM) of 6.6%. For the same compound, the inhibition (CLK1 (human); compound 0.02 µM) was -7.5%, the inhibition (CSNK1A1 (human); compound 0.001 µM) was -8.2% and the inhibition (CSNK1A1 (human); compound 0.02 µM) was -7.8%. For the same compound, the inhibition (CSNK2A2 (human); compound 0.001 µM) was -3.1%, the inhibition (CSNK2A2 (human); compound 0.02 µM) was -5.6% and the inhibition (DYRK1A (human); compound 0.001 µM) was 8%. For the same compound, the inhibition (DYRK1A (human); compound 0.02 µM) was -5.5%, the inhibition (DYRK2 (human); compound 0.001 µM) was 8.7% and the inhibition (DYRK2 (human); compound 0.02 µM) was -6.4%. The inhibition (DYRK3 (human); compound 0.001 µM) was -18.5%, the inhibition (DYRK3 (human); compound 0.02 µM) was -6.4% and the inhibition (EPHA2 (human); compound 0.001 µM) was -8.3%. For the same compound, the inhibition (EPHA2 (human); compound 0.02 µM) was -6.2%, the inhibition (EPHB2 (human); compound 0.001 µM) was -6.4% and the inhibition (EPHB2 (human); compound 0.02 µM) was -5.2%. For the same compound, the inhibition (FGFR3 (human); compound 0.001 µM) was 8.1%, the inhibition (FGFR3 (human); compound 0.02 µM) was 47.4% and the inhibition (FGR (human); compound 0.001 µM) was 8.2%. The inhibition (FGR (human); compound 0.02 µM) was 25%, the inhibition (FLT4 (human); compound 0.001 µM) was 21.2% and the inhibition (FLT4 (human); compound 0.02 µM) was 86.7%. For the same compound, the inhibition (INSR (human); compound 0.001 µM) was -0.3%, the inhibition (INSR (human); compound 0.02 µM) was -8.6% and the inhibition (ITK (human); compound 0.001 µM) was 2.8%. For the same compound, the inhibition (ITK (human); compound 0.02 µM) was 1.9%, the inhibition (JAK1 JH1 JH2 (human); compound 0.001 µM) was -7.4% and the inhibition (JAK1 JH1 JH2 (human); compound 0.02 µM) was -3.3%. The inhibition (KDR (human); compound 0.001 µM) was 47.3%, the inhibition (KDR (human); compound 0.02 µM) was 97.4% and the inhibition (LYN (human); compound 0.001 µM) was -2.2% and 4.1%. The inhibition (LYN (human); compound 0.02 µM) was 16% and 9.7%, the inhibition (MARK2 (human); compound 0.001 µM) was 3.5% and the inhibition (MARK2 (human); compound 0.02 µM) was 11.8%. For the same compound, the inhibition (NIM1 (human); compound 0.001 µM) was 13.8%, the inhibition (NIM1 (human); compound 0.02 µM) was -10.4% and the inhibition (NUAK2 (human); compound 0.001 µM) was 9.9%. It also gave an inhibition (NUAK2 (human); compound 0.02 µM) of -0.7%, an inhibition (PAK2 (human); compound 0.001 µM) of -3.6% and an inhibition (PAK2 (human); compound 0.02 µM) of 4.1%. For the same compound, the inhibition (PAK4 (human); compound 0.001 µM) was 3.3%, the inhibition (PAK4 (human); compound 0.02 µM) was 0.8% and the inhibition (PLK1 (human); compound 0.001 µM) was -5%. The inhibition (PLK1 (human); compound 0.02 µM) was -2.2%, the inhibition (PRKACA (human); compound 0.001 µM) was -7.9% and the inhibition (PRKACA (human); compound 0.02 µM) was -10.1%. For the same compound, the inhibition (RPS6KA5 KD1 KD2 (human); compound 0.001 µM) was -6.2%, the inhibition (RPS6KA5 KD1 KD2 (human); compound 0.02 µM) was -7.1% and the inhibition (SGK1 (human); compound 0.001 µM) was 11.3%. For the same compound, the inhibition (SGK1 (human); compound 0.02 µM) was -1.8%, the inhibition (SPHK2 (human); compound 0.001 µM) was 2.8% and the inhibition (SPHK2 (human); compound 0.02 µM) was -4.8%. The inhibition (SRPK2 (human); compound 0.001 µM) was -9.3%, the inhibition (SRPK2 (human); compound 0.02 µM) was -6.5% and the inhibition (TSSK3 (human); compound 0.001 µM) was -1.6%. For the same compound, the inhibition (TSSK3 (human); compound 0.02 µM) was 0%, the inhibition (WNK1 (human); compound 0.001 µM) was 4.1% and the inhibition (WNK1 (human); compound 0.02 µM) was 2.1%.
An inhibition (AXL (human); compound 0.02 µM) of 6.9%, an inhibition (AXL (human); compound 0.2 µM) of 17.7% and an inhibition (BLK (human); compound 0.02 µM) of 13.8% were found for `COc1cc2c(Oc3ccc4[nH]c(C)cc4c3F)ncnc2cc1OCCCN1CCCC1` in this work. The inhibition (BLK (human); compound 0.2 µM) was 36.1%, the inhibition (CAMK2A (human); compound 0.02 µM) was 3.5% and the inhibition (CAMK2A (human); compound 0.2 µM) was 3.9%. For the same compound, the inhibition (CHEK1 (human); compound 0.02 µM) was -6.2%, the inhibition (CHEK1 (human); compound 0.2 µM) was -0.1% and the inhibition (CLK1 (human); compound 0.02 µM) was 8.1%. For the same compound, the inhibition (CLK1 (human); compound 0.2 µM) was -6.1%, the inhibition (CSNK1A1 (human); compound 0.02 µM) was -5.9% and the inhibition (CSNK1A1 (human); compound 0.2 µM) was -7.9%. The inhibition (CSNK2A2 (human); compound 0.02 µM) was -0.7%, the inhibition (CSNK2A2 (human); compound 0.2 µM) was -1.2% and the inhibition (DYRK1A (human); compound 0.02 µM) was 10%. The inhibition (DYRK1A (human); compound 0.2 µM) was -4%, the inhibition (DYRK2 (human); compound 0.02 µM) was 13.4% and the inhibition (DYRK2 (human); compound 0.2 µM) was -5.6%. The inhibition (DYRK3 (human); compound 0.02 µM) was -7.2%, the inhibition (DYRK3 (human); compound 0.2 µM) was -7.9% and the inhibition (EPHA2 (human); compound 0.02 µM) was -5.4%. For the same compound, the inhibition (EPHA2 (human); compound 0.2 µM) was -3.5%, the inhibition (EPHB2 (human); compound 0.02 µM) was -4.3% and the inhibition (EPHB2 (human); compound 0.2 µM) was 8.7%. For the same compound, the inhibition (FGFR3 (human); compound 0.02 µM) was 72.3%, the inhibition (FGFR3 (human); compound 0.2 µM) was 96.5% and the inhibition (FGR (human); compound 0.02 µM) was 12.6%. It also gave an inhibition (FGR (human); compound 0.2 µM) of 27.6%, an inhibition (FLT4 (human); compound 0.02 µM) of 73.8% and an inhibition (FLT4 (human); compound 0.2 µM) of 97%. The inhibition (GSK3B (human); compound 0.02 µM) was 0.7%, the inhibition (GSK3B (human); compound 0.2 µM) was 0.8% and the inhibition (INSR (human); compound 0.02 µM) was -0.3%. For the same compound, the inhibition (INSR (human); compound 0.2 µM) was -2.4%, the inhibition (ITK (human); compound 0.02 µM) was 6.7% and the inhibition (ITK (human); compound 0.2 µM) was 5.5%. For the same compound, the inhibition (JAK1 JH1 JH2 (human); compound 0.02 µM) was -2.9%, the inhibition (JAK1 JH1 JH2 (human); compound 0.2 µM) was -3.6% and the inhibition (KDR (human); compound 0.02 µM) was 96.3%. For the same compound, the inhibition (KDR (human); compound 0.2 µM) was 101%, the inhibition (LYN (human); compound 0.02 µM) was 13.8% and 15.6% and the inhibition (LYN (human); compound 0.2 µM) was 53.8% and 53.9%. It also gave an inhibition (MARK2 (human); compound 0.02 µM) of 6.9%, an inhibition (MARK2 (human); compound 0.2 µM) of 9.2% and an inhibition (NIM1 (human); compound 0.02 µM) of 15.8%. The inhibition (NIM1 (human); compound 0.2 µM) was -9.8%, the inhibition (NUAK2 (human); compound 0.02 µM) was 8.9% and the inhibition (NUAK2 (human); compound 0.2 µM) was -17.5%. It also gave an inhibition (PAK2 (human); compound 0.02 µM) of -4.1%, an inhibition (PAK2 (human); compound 0.2 µM) of 3.5% and an inhibition (PAK4 (human); compound 0.02 µM) of 6.5%. The inhibition (PAK4 (human); compound 0.2 µM) was 0%, the inhibition (PLK1 (human); compound 0.02 µM) was -0.1% and the inhibition (PLK1 (human); compound 0.2 µM) was -2%. For the same compound, the inhibition (PRKACA (human); compound 0.02 µM) was -2.9%, the inhibition (PRKACA (human); compound 0.2 µM) was -4.8% and the inhibition (RPS6KA5 KD1 KD2 (human); compound 0.02 µM) was -4.9%. For the same compound, the inhibition (RPS6KA5 KD1 KD2 (human); compound 0.2 µM) was -7.3%, the inhibition (SGK1 (human); compound 0.02 µM) was 5.2% and the inhibition (SGK1 (human); compound 0.2 µM) was 0.4%. For the same compound, the inhibition (SPHK2 (human); compound 0.02 µM) was 6.4%, the inhibition (SPHK2 (human); compound 0.2 µM) was 2.8% and the inhibition (SRPK2 (human); compound 0.02 µM) was -7.9%. The inhibition (SRPK2 (human); compound 0.2 µM) was -5.3%, the inhibition (TSSK3 (human); compound 0.02 µM) was 0.6% and the inhibition (TSSK3 (human); compound 0.2 µM) was 12.5%. For the same compound, the inhibition (WNK1 (human); compound 0.02 µM) was 4.8% and the inhibition (WNK1 (human); compound 0.2 µM) was 2.6%.

From the kinase profiling compilation of Christmann-Franck et al. (2016)
